Publication PMC10829382, “Purification and characterization of L-arginine deiminase from Penicillium chrysogenum” (BMC Microbiology, 2024)
Values belong to the molecule of their own block, whether it stands above or below them.

Columns and labels:
[1] = target: T1, L-arginine deiminase (ADI) from Penicillium chrysogenum; assay: ammonia release, Nessler's reagent, […] nm; residual activity at […]; format: biochemical
T1 construct: single 49 kDa band on SDS-PAGE

[2] = tested on: T1, L-arginine deiminase (ADI) from Penicillium chrysogenum; assay: ammonia release, Nessler's reagent, […] nm; Eadie-Hofstee plot; format: biochemical; details: 40 °C, 30 min; phosphate buffer pH 7.5 in the standard assay
[3] = chelator in the reaction mixture, L-arginine as substrate, 40 °C

SMILES: O=C(O)CN(CCN(CC(=O)O)CC(=O)O)CC(=O)O [EDTA]
IC50 [1, 3]: 5.19 mM

SMILES: N=C(N)NCCC[C@H](N)C(=O)O [L-arginine]
Km [2]: 750 µM

SMILES: O=C1CCC(=O)N1Br [N-bromosuccinimide]
IC50 ([1]; covalent, tryptophanyl modifier, 1 h in 150 mM phosphate pH 7.5, then dialysed before assay): 5 mM

SMILES: CC(=O)C(C)=O [butanedione]
IC50 ([1]; covalent, arginyl modifier, 50 mM sodium borate pH 7.0, room temperature): 4.66 mM

SMILES: CCOC(=O)OC(=O)OCC [diethylpyrocarbonate]
IC50 ([1]; covalent, histidyl modifier, assay buffer, 25 °C, 5 min): 6.44 mM

The next lines start with the values.

IC50 ([1]; covalent, tyrosyl modifier, 150 mM phosphate pH 7.5, 37 °C, 20 min): 5.4 mM
SMILES: CC(=O)n1ccnc1 [N-acetyl-imidazole]

IC50 ([1]; covalent, sulfhydryl modifier, pre-incubated 1 h at 25 °C, 100 mM Tris-HCl pH 5.0, 1 mM EDTA): 4.95 mM
SMILES: CCN1C(=O)C=CC1=O [N-ethylmaleimide]

IC50 ([1]; covalent, lysyl modifier, 100 mM Tris-HCl pH 7.0, 4 °C, 1 h): 6.48 mM
SMILES: CN(C)c1cccc2c(S(=O)(=O)Cl)cccc12 [dansyl chloride]

IC50 [1, 3]: 4.79 mM
SMILES: c1cnc2c(c1)ccc1cccnc12 [o-phenanthroline]

IC50 [1, 3]: 7.46 mM
SMILES: c1ccc(-c2ccccn2)nc1 [α,α-dipyridyl]
